According to the NIST ThermoML archive (doi:10.1021/acs.jced.6b00657):

Assay: xn = mol fraction of the nth substance listed
Settings: Liquid, absorption in thin film, x2 = 0

CCn1cc[n+](C)c1.N#C[C-](C#N)C#N [1-ethyl-3-methyl-1H-imidazolium tricyanomethanide] + O=C=O
Settings | binary diffusion coefficient [m2/s]
298.15 K, 96 kPa | 3.3e-10
298.15 K, 194 kPa | 2.4e-10
298.15 K, 294 kPa | 2.7e-10
298.15 K, 393 kPa | 2.6e-10
298.15 K, 493 kPa | 2.8e-10
298.15 K, 793 kPa | 3.6e-10
298.15 K, 893 kPa | 3.2e-10
298.15 K, 993 kPa | 3.2e-10
298.15 K, 1293 kPa | 3.9e-10
298.15 K, 1393 kPa | 3.8e-10
298.15 K, 1493 kPa | 4.1e-10
298.15 K, 1793 kPa | 4.4e-10
298.15 K, 1893 kPa | 4.1e-10
298.15 K, 1992 kPa | 4.2e-10
308.15 K, 194 kPa | 2.9e-10
308.15 K, 293 kPa | 3e-10
308.15 K, 393 kPa | 3e-10
308.15 K, 493 kPa | 3e-10
308.15 K, 593 kPa | 3.1e-10
308.15 K, 693 kPa | 3.3e-10
308.15 K, 792 kPa | 3.8e-10
308.15 K, 893 kPa | 3.6e-10
308.15 K, 993 kPa | 3.5e-10
308.15 K, 1093 kPa | 3.6e-10
308.15 K, 1192 kPa | 4.1e-10
308.15 K, 1293 kPa | 3.7e-10
308.15 K, 1393 kPa | 3.9e-10
308.15 K, 1493 kPa | 4.1e-10
308.15 K, 1593 kPa | 3.9e-10
308.15 K, 1693 kPa | 4.1e-10
308.15 K, 1792 kPa | 4.2e-10
308.15 K, 1893 kPa | 4.5e-10
308.15 K, 1993 kPa | 4.1e-10
323.15 K, 194 kPa | 4.4e-10
323.15 K, 294 kPa | 4.8e-10
323.15 K, 394 kPa | 4.4e-10
323.15 K, 494 kPa | 3.9e-10
323.15 K, 593 kPa | 4.1e-10
323.15 K, 692 kPa | 4.1e-10
323.15 K, 793 kPa | 4.4e-10
323.15 K, 892 kPa | 5e-10
323.15 K, 993 kPa | 4.4e-10
323.15 K, 1093 kPa | 4.2e-10
323.15 K, 1193 kPa | 5.3e-10
323.15 K, 1392 kPa | 4.6e-10
323.15 K, 1492 kPa | 4.2e-10
323.15 K, 1593 kPa | 4.2e-10
323.15 K, 1693 kPa | 4.2e-10
323.15 K, 1793 kPa | 5.9e-10
323.15 K, 1993 kPa | 4.9e-10
338.25 K, 94 kPa | 5.1e-10
338.25 K, 194 kPa | 5e-10
338.25 K, 294 kPa | 5.1e-10
338.25 K, 394 kPa | 4.9e-10
338.25 K, 494 kPa | 5.8e-10
338.25 K, 594 kPa | 4.5e-10
338.25 K, 693 kPa | 4.6e-10
338.25 K, 793 kPa | 5.6e-10
338.25 K, 893 kPa | 5.2e-10
338.25 K, 1093 kPa | 5.1e-10
338.25 K, 1192 kPa | 5.2e-10
338.25 K, 1393 kPa | 5.8e-10
338.25 K, 1493 kPa | 4.9e-10
338.25 K, 1592 kPa | 5.1e-10
338.25 K, 1693 kPa | 4.6e-10
338.25 K, 1792 kPa | 5.2e-10
338.25 K, 1993 kPa | 5.4e-10
353.25 K, 95 kPa | 6.1e-10
353.25 K, 294 kPa | 9e-10
353.25 K, 494 kPa | 7.4e-10
353.25 K, 594 kPa | 6.6e-10
353.25 K, 694 kPa | 6.6e-10
353.25 K, 794 kPa | 6.8e-10
353.25 K, 894 kPa | 7.8e-10
353.25 K, 994 kPa | 6.7e-10
353.25 K, 1093 kPa | 6.8e-10
353.25 K, 1192 kPa | 7e-10
353.25 K, 1593 kPa | 7.5e-10
353.25 K, 1693 kPa | 8.2e-10
353.25 K, 1893 kPa | 7.4e-10
353.25 K, 1993 kPa | 7.8e-10

CCCCCCCn1cc[n+](C)c1.N#C[C-](C#N)C#N [1-heptyl-3-methylimidazolium tricyanomethanide] + O=C=O
Settings | binary diffusion coefficient [m2/s]
298.15 K, 93 kPa | 2e-10
298.15 K, 193 kPa | 1.6e-10
298.15 K, 293 kPa | 1.7e-10
298.15 K, 393 kPa | 1.9e-10
298.15 K, 492 kPa | 2e-10
298.15 K, 692 kPa | 2.3e-10
298.15 K, 792 kPa | 2.4e-10
298.15 K, 893 kPa | 2.5e-10
298.15 K, 993 kPa | 2.7e-10
298.15 K, 1193 kPa | 3.1e-10
298.15 K, 1293 kPa | 2.9e-10
298.15 K, 1392 kPa | 2.9e-10
298.15 K, 1493 kPa | 3.1e-10
298.15 K, 1693 kPa | 2.8e-10
298.15 K, 1792 kPa | 3.1e-10
298.15 K, 1893 kPa | 3.6e-10
298.15 K, 1993 kPa | 3.5e-10
308.15 K, 94 kPa | 2.6e-10
308.15 K, 194 kPa | 2.3e-10
308.15 K, 294 kPa | 2.4e-10
308.15 K, 394 kPa | 2.8e-10
308.15 K, 493 kPa | 2.8e-10
308.15 K, 593 kPa | 2.9e-10
308.15 K, 693 kPa | 2.7e-10
308.15 K, 993 kPa | 3e-10
308.15 K, 1093 kPa | 3.2e-10
308.15 K, 1192 kPa | 3.4e-10
308.15 K, 1293 kPa | 3.3e-10
308.15 K, 1392 kPa | 3.5e-10
308.15 K, 1493 kPa | 3.6e-10
308.15 K, 1893 kPa | 3.9e-10
308.15 K, 1993 kPa | 4.2e-10
323.15 K, 95 kPa | 3.2e-10
323.15 K, 195 kPa | 4e-10
323.15 K, 294 kPa | 3.8e-10
323.15 K, 394 kPa | 3.5e-10
323.15 K, 494 kPa | 3.8e-10
323.15 K, 594 kPa | 3.9e-10
323.15 K, 692 kPa | 3.2e-10
323.15 K, 793 kPa | 4e-10
323.15 K, 893 kPa | 3.5e-10
323.15 K, 993 kPa | 4.4e-10
323.15 K, 1093 kPa | 4.2e-10
323.15 K, 1192 kPa | 4.4e-10
323.15 K, 1293 kPa | 3.2e-10
338.25 K, 95 kPa | 4.5e-10
338.25 K, 196 kPa | 4.4e-10
338.25 K, 295 kPa | 4.3e-10
338.25 K, 394 kPa | 5.3e-10
338.25 K, 493 kPa | 4.7e-10
338.25 K, 594 kPa | 5.2e-10
338.25 K, 793 kPa | 6.1e-10
338.25 K, 993 kPa | 5.8e-10
338.25 K, 1093 kPa | 5.6e-10
338.25 K, 1292 kPa | 6.5e-10
338.25 K, 1392 kPa | 5.6e-10
338.25 K, 1793 kPa | 5.8e-10
338.25 K, 1893 kPa | 5.6e-10
338.25 K, 1993 kPa | 6.5e-10
353.25 K, 494 kPa | 6.4e-10
353.25 K, 594 kPa | 6.5e-10
353.25 K, 693 kPa | 5.4e-10
353.25 K, 793 kPa | 6e-10
353.25 K, 894 kPa | 6.6e-10
353.25 K, 994 kPa | 7.5e-10
353.25 K, 1094 kPa | 5.7e-10
353.25 K, 1193 kPa | 7.1e-10
